Here are results for three compounds from patent publication US5051419A, “Prevention or elimination of mycoplasma contamination of animal or plant cell cultures” (Dainippon Pharmaceutical Co., Ltd., priority 1988, dated 1991).

Converted amounts (≈) assume the structure as drawn. Like-named read-outs stand apart in the source and are kept apart here.

The subject of assay [1] is M. arginini G-230. The assay can be described thus: Anti-mycoplasmal activity (MIC, MMC), liquid dilution method. Particulars: Mycoplasmopsis arginini. In kind it is cell-based, Mycoplasma arginini. The procedure: (§1) The minimum growth inhibitory concentration (MIC, μg/ml) and minimum mycoplasmacidal concentration (MMC, μg/ml) of test chemicals were measured by the liquid dilution method. The method of measuring MIC in this example differs from that used in Test Example 1.
(§2) A 1,000 μg/ml aqueous solution of a test chemical was prepared, and diluted to 5 times with a preculture medium. The dilution (200 μg/ml) was serially diluted twofold with the same medium in a 8-well reservoir. Fifty microliters of each diluted solution was distributed in the wells of a microplate. A well to which no test chemical was added was used as a control.
(§3) A mycoplasma suspension for inoculation prepared as in Test Example 1 was pipetted in an amount of 50 microliters to each of the wells. The microplates were sealed by a plate seal, shaken by a micromixer, and cultivated at 37° C. for 5 days. In the control to which no test chemical was added, color change of the medium by the growth of mycoplasma was observed after two days from the start of the cultivation. At this time, 3 microliters of the liquid culture was inoculated in drug-free Chanock agar medium by using a Cathra-replicator. The liquid culture and the agar medium were further cultivated at 37° C. for 3 days (anaerobically in the case of M. orale, and aerobically in the case of A. laidlawii and M. arginini). MIC and MMC were determined from the results of observation on the 5th day. MIC was defined as the lowest concentration of the test chemical at which growth of mycoplasma in the drug-containing liquid medium was not noted, and MMC, as that in the drug-free agar medium.

Assay [2] concerns FL human-amnion cells. The assay can be described thus: Cytotoxicity on FL cells (cell proliferation inhibition). In kind it is cell-based. Particulars: Homo sapiens, 72 h, read-out: IC50 (50% cell proliferation inhibitory concentration).
Procedure: Whether test chemicals would inhibit growth of cells was examined.
A 1,000 μg/ml aqueous solution of each of the test chemicals was serially diluted twofold with Eagle's minimum essential medium.
FL human-amnion cells (2×10^4 cells) were suspended in 3.6 ml of 10% FBS-MEM medium, put in petri dishes (diameter 60 mm) for tissue culture, and cultivated at 37° C. in 5% CO2 humidified atmosphere for 48 hours. The test chemical solution prepared as above was added in an amount of 0.4 ml to each of the petri dishes in predetermined concentrations, and the cells were cultivated for 3 days. After the cultivation, the medium was removed, and the remainder was washed once with Dulbecco's phosphate buffer (pH 7.4). The cells were peeled off by adding 0.2 ml of a 2.5% trypsin-0.002% EDTA mixed solution (1:9) and properly diluted with 10% FBS-MEM medium. Then, the number of the cells was counted by an Erma hemocytometer.
The cell proliferation rate was calculated by following formula [formula]
Assay [3] concerns A. laidlawii PG8. The assay can be described thus: Anti-mycoplasmal activity (MIC), agar-dilution method. In kind it is cell-based. The settings on record: Acholeplasma laidlawii. The procedure:
(§4) The minimum growth inhibitory concentrations (MIC; μg/ml) of the test chemicals were measured by the agar-dilution method.
(§5) (1) Preparation of a mycoplasma suspension for inoculation
(§6) A stored frozen suspension of mycoplasma (0.2 to 0.3 ml) was inoculated in 2 to 3 ml of a preculture medium to be described later. It was serially diluted tenfold until the dilution ratio reached 10,000 times. These diluted solutions were cultivated at 37° C. for 2 to 7 days. A culture having the highest dilution ratio was selected from those cultures in which a color change of the media was noted as a result of mycoplasma growth. It was diluted to 100 times with the preculture medium to prepare a mycoplasma suspension for inoculation.
(§7) The following preculture media were used.
(§8) For Mycoplasma pneumoniae and Acholeplasma laidlawii, Chanock liquid medium containing 0.5% glucose (pH 7.8) [Library of Bacteriology 2, "Procedures for Isolation and Identification of Human, Animal and Plant Mycoplasmas", edited by Japanese Society for Bacteriology, page 8 (1982), Saikon Publishing Co.] was used.
(§9) (2) Preparation of agar plates containing the test chemicals
(§10) A 1,000 μg/ml aqueous solution of each test chemical was prepared (a difficultly-soluble chemical was dissolved by adding an equimolar amount of sodium hydroxide; the same applies hereinafter). The solution was used as a base solution and its twofold serial dilutions were prepared. The diluted solutions were pipetted on plastic petri dishes each in an amount of 1 ml. The Chanock agar medium (for Mycoplasma hyorhinis, 0.5% mucin was further added) described at page 9 of the above cited "Procedures for Isolation and Identification of Human, Animal and Plant Mycoplasmas" was heated and kept at 55° C. and put in an amount of 9 ml in each of the petri dishes containing the test chemicals and fully mixed with the test chemicals to prepare agar plates containing the test chemicals.
(§11) The mycoplasma suspension for inoculation prepared by the procedure described in section (1) was inoculated in an amount of about 3 microliters on each of the chemical-containing agar plates by means of a Cathra-replicator (3 mm pin). The plates on which Mycoplasma pneumoniae, Mycoplasma arginini, and Acholeplasma laidlawii and Mycoplasma hyorhinis were inoculated were tightly packed in a plastic bag together with the plasic petri dishes including water-immersed absorbent cotton. Mycoplasma pneumoniae was aerobically cultivated at 37° C. under highly humid conditions for 7 days; and Mycoplasma arginini and Acholeplasma laidlawii, for 2 days. The other mycoplasma species were cultivated anaerobically for 2 days by using a GasPak anaerobic system (BBL). After the cultivation, growth of mycoplasma were observed under an OLYMPUS microscope (20-100 X). The lowest concentration of the test chemical at which no growth of mycoplasma was noted is defined as MIC.

For assay [4], the system named is M. orale CH-19299. The assay can be described thus: Anti-mycoplasmal activity (MIC, MMC), liquid dilution method. Format: cell-based, Mycoplasma orale. The settings on record: Metamycoplasma orale. The procedure: as §1, §2, §3
In assay [5] the test system is M. hyorhinis BST7. The assay can be described thus: Anti-mycoplasmal activity (MIC), agar-dilution method. In kind it is cell-based, Mycoplasma hyorhinis. The settings on record: Mesomycoplasma hyorhinis. The procedure:
as §4, §5, §6, §7
For Mycoplasma hyorhinis, a liquid medium (pH 7.8) for isolation of Mycoplasma hyorhinis [Journal of the Japan Veterinary Medical Association,32, 34-38 (1979)] was used.
as §9, §10, §11

Assay [6] relates to M. salivarium PG20. The description is as above. The settings on record: Metamycoplasma salivarium. Format: cell-based, Mycoplasma salivarium. The procedure: as §4, §5, §6, §7
(§12) For other mycoplasma species, Chanock liquid medium (pH 6.8) containing 0.2% arginine was used.
as §9, §10, §11

In assay [7] the test system is M. pnumoniae Mac. Described as above. Format: cell-based, Mycoplasma pneumoniae. The settings on record: Mycoplasma. The procedure:
as §4, §5, §6, §7, §8, §9, §10, §11

The test system of assay [8] is A. laidlawii PG-8. The assay can be described thus: Anti-mycoplasmal activity (MIC, MMC), liquid dilution method. In kind it is cell-based. The settings on record: Acholeplasma laidlawii. The procedure: as §1, §2, §3
Assay [9] concerns M. arginini G230. The assay can be described thus: Anti-mycoplasmal activity (MIC), agar-dilution method. Format: cell-based, Mycoplasma arginini. Particulars: Mycoplasmopsis arginini. The procedure: as §4, §5, §6, §7, §12, §9, §10, §11
The subject of assay [10] is M. orale CH19299. The assay is described as above. In kind it is cell-based, Mycoplasma orale. Particulars: Metamycoplasma orale. The procedure:
as §4, §5, §6, §7, §12, §9, §10, §11

The subject of assay [11] is mycoplasma. Particulars: in words, background; cited from earlier work.

In the case of `O=C(O)c1cn(C2CC2)c2cc(N3CCNCC3)c(F)cc2c1=O` [Compound 2, ciprofloxacin], the MIC (usually the smallest concentration in the dilution series that meets the test's criterion for growth inhibition) stood at 0.78 µg/mL (≈ 2.35 µM) in [1] (G230); 0.39 µg/mL (≈ 1.18 µM) in [3] (PG8); 1.56 µg/mL (≈ 4.71 µM) in assay [4] (CH19299); 0.78 µg/mL (≈ 2.35 µM) in assay [5] (BST7); 3.13 µg/mL (≈ 9.45 µM) in [6] (PG20); 0.39 µg/mL (≈ 1.18 µM) in [7]. In addition, the figures for the MIC in [8] (PG8), in assay [9] (G230) and in assay [10] (CH19299) were 0.39 µg/mL (≈ 1.18 µM), 0.78 µg/mL (≈ 2.35 µM) and 1.56 µg/mL (≈ 4.71 µM), respectively. In addition, the MBC in assay [1] (G230, 120 h, read-out: MMC) was determined as 0.78 µg/mL (≈ 2.35 µM); in assay [4] (CH19299, 120 h, read-out: MMC), 1.56 µg/mL (≈ 4.71 µM); in assay [8] (PG8, 120 h, read-out: MMC), 0.39 µg/mL (≈ 1.18 µM). In [2], the IC50 worked out at 28 µg/mL (≈ 84.5 µM).
Take `CC1COc2c(N3CCN(C)CC3)c(F)cc3c(=O)c(C(=O)O)cn1c23` (stereo not drawn) [Compound 4]: the MIC in [3] (agar dilution, A. laidlawii PG8, read-out: MIC) stood at 0.78 µg/mL (≈ 2.16 µM); in assay [5] (agar dilution, M. hyorhinis BST7, read-out: MIC), 3.13 µg/mL (≈ 8.66 µM); in assay [6] (agar dilution, M. salivarium PG20, read-out: MIC) it was 6.25 µg/mL (≈ 17.3 µM); in assay [7] (agar dilution, M. pnumoniae Mac, read-out: MIC), 0.78 µg/mL (≈ 2.16 µM); in [9] (agar dilution, M. arginini G230, read-out: MIC) it was 0.78 µg/mL (≈ 2.16 µM); in assay [10] (agar dilution, M. orale CH19299, read-out: MIC), 1.56 µg/mL (≈ 4.32 µM).
`C=C[C@]1(C)C[C@@H](OC(=O)CSCCN(CC)CC)[C@]2(C)[C@H](C)CC[C@]3(CCC(=O)[C@H]32)[C@@H](C)[C@@H]1O` [tiamulin]: in assay [11], the “minimum growth inhibitory concentration (MIC) for mycoplasma” value is “low”; the “mode of action on mycoplasma” value was “only act bacteriostatically and not mycoplasmacidally”.
